Measurements taken from paper PMC7539012, “Hyperphosphorylated tau aggregation and cytotoxicity modulators screen identified prescription drugs linked to Alzheimer's disease and cognitive functions” (Scientific Reports, 2020).
Where a name gives a salt, the structure may show the parent alone.

Tested on: T1, 1N4R p-tau
T1 construct: made in house; host or cells: E. coli (PIMAX system)
Experiment: p-tau aggregation modulator screen of 1280-compound library (ThS fluorescence net change over 16 h)
Type: biochemical
Parameters: key to PTAI>2SD: *: PTAI>2SD; key to PTAI>3SD: *: PTAI>3SD
Settings: not given

| Compound | ThS net change |
| --- | --- |
| NC(=O)OCCCc1ccccc1 [Phenprobamate] | 323 |
| O=C(O)c1cn(C2CC2)c2cc(N3CCNCC3)c(F)cc2c1=O [Ciprofloxacin hydrochloride monohydrate] | 361 |
| O=[N+]([O-])O[C@@H]1CO[C@H]2[C@@H]1OC[C@@H]2O [Isosorbide mononitrate] | 477 |
| CCc1c2c(nc3ccc(OC(=O)N4CCC(N5CCCCC5)CC4)cc13)-c1cc3c(c(=O)n1C2)COC(=O)[C@]3(O)CC.Cl.O.O.O [Irinotecan hydrochloride trihydrate] | 281 |
| Cl.Oc1noc2c1CCNC2 [THIP Hydrochloride] | 448 |
| CC(C)NC[C@H](O)COc1cccc2ccccc12 [(S)-propranolol hydrochloride] | 434 |
| C=CC[N@@+]12CC[C@]34c5ccccc5N5/C=C6\C7N(/C=C(\C53)[C@@H](C[C@@H]41)/C(=C/CO)C2)c1ccccc1[C@@]71CC[N@@+]2(CC=C)C/C(=C\CO)[C@@H]6C[C@@H]12.[Cl-].[Cl-] (some centres unmarked) [Alcuronium chloride] | 460 |

Same assay, conditions: 30 µM compound, 6 µM p-tau, 16 h

| Compound | effect on p-tau aggregation in pilot screen |
| --- | --- |
| CC/C(=C(/CC)c1ccc(O)cc1)c1ccc(O)cc1 [diethylstilbestrol, reference compound] | none of them affected p-tau aggregation |

Same assay, conditions: 1280-compound library screen; ThS fluorescence net change over 16 h

| Compound | ThS net change |
| --- | --- |
| Cc1cccc(C)c1NC(=O)C(C)N (centres unmarked) [Tocainide hydrochloride] | 412 |
| c1ccc2c(c1)OCC(C1=NCCN1)O2 (centres unmarked) [Idazoxan hydrochloride] | 386 |
| CCOC(=O)[C@@](C)(N)Cc1ccc(O)c(O)c1 [Methyldopate hydrochloride] | 385 |
| CN(C)CC/C=C1/c2ccccc2Sc2ccc(Cl)cc21 [Chlorprothixene hydrochloride] | 392 |
| CCCCc1cc2ccccc2c(OCCN(C)C)n1 [Dimethisoquin hydrochloride] | 394 |
| O=C(CCCCCCC(=O)Nc1ccccc1)NO [Vorinostat] | 398 |
| Clc1ccccc1C(c1ccccc1)(c1ccccc1)n1ccnc1 [Clotrimazole] | 396 |
| CCN1C(=O)NC(c2ccccc2)C1=O (centres unmarked) [Ethotoin] | 394 |
| C[C@]12CC[C@@H]3c4ccc(O)cc4CC[C@H]3[C@@H]1CC[C@@H]2O [Estradiol-17 beta] | 384 |
| Cc1c(NC(=O)c2cccnc2)c(=O)n(-c2ccccc2)n1C [Nifenazone] | 380 |
| CC/C(=C(/CC)c1ccc(O)cc1)c1ccc(O)cc1 [diethylstilbestrol, reference compound] | 406 |

Same assay, conditions: 1280-compound library screen; […]

| Compound | ThS net change |
| --- | --- |
| CN1CCc2c(c3ccccc3n2Cc2ccccc2)C1.O=S(=O)(O)c1cccc2c(S(=O)(=O)O)cccc12 [Mebhydroline 1,5-naphtalenedisulfonate] | 385 |
| CC(C)(N)Cc1ccccc1.Cl [Phentermine hydrochloride] | 408 |

Same assay, conditions: flag: p-tau aggregation inhibitor, ThS net change more than 2 SD from mean

| Compound | PTAI>2SD |
| --- | --- |
| C[C@H]1c2cccc(O)c2C(=O)C2=C(O)[C@]3(O)C(=O)C(C(N)=O)=C(O)[C@@H](N(C)C)[C@@H]3[C@@H](O)[C@@H]21 [Doxycycline hydrochloride] | * |

Same assay, conditions: flag: p-tau aggregation inhibitor, ThS net change more than 3 SD from mean

| Compound | PTAI>3SD |
| --- | --- |
| COc1ccc(-c2cc(=S)ss2)cc1 [Anethole-trithione] | * |

Same assay, conditions: library screen, ThS fluorescence net change over 16 h with p-tau

| Compound | ThS net change |
| --- | --- |
| CC(=O)CCCCn1c(=O)c2c(ncn2C)n(C)c1=O [Pentoxifylline] | 314 |
| CCN(CC)CCOC(=O)C(Cc1cccc2ccccc12)CC1CCCO1 (centres unmarked) [Nafronyl oxalate] | 324 |
| CC(=O)Oc1cccc2c1C(=O)c1c(OC(C)=O)cc(C(=O)O)cc1C2=O [Diacerein] | 239 |
| OCCOCCN1CCN(C(c2ccccc2)c2ccc(Cl)cc2)CC1 (centres unmarked) [Hydroxyzine dihydrochloride] | 309 |
| COc1ccc(-c2cc(=S)ss2)cc1 [Anethole-trithione] | 46 |
| C[C@H]1c2cccc(O)c2C(=O)C2=C(O)[C@]3(O)C(=O)C(C(N)=O)=C(O)[C@@H](N(C)C)[C@@H]3[C@@H](O)[C@@H]21 [Doxycycline hydrochloride] | 174 |
| Cc1ncc([N+](=O)[O-])n1CC(C)O (centres unmarked) [Secnidazole] | 327 |
| CSc1ccc2c(c1)N(CCC1CCCCN1C)c1ccccc1S2 (centres unmarked) [Thioridazine hydrochloride] | 252 |
| CC(C)N1CCN(c2ccc(OCC3COC(Cn4cncn4)(c4ccc(Cl)cc4Cl)O3)cc2)CC1 (centres unmarked) [Terconazole] | 326 |

Same assay, conditions: p-tau aggregation modulator screen of 1280-compound library; ThS fluorescence net change

| Compound | ThS net change |
| --- | --- |
| COc1ccc2[nH]c([S+]([O-])Cc3ncc(C)c(OC)c3C)nc2n1 (centres unmarked) [Tenatoprazole] | 371 |
| C[C@]12CC[C@@H]3c4ccc(OS(=O)(=O)O)cc4CC[C@H]3[C@@H]1CCC2=O [Estropipate] | 359 |
| COc1cc(OC)c(C(=O)CCCN2CCCC2)c(OC)c1.Cl [Buflomedil hydrochloride] | 363 |
| Oc1c(I)cc(Cl)c2cccnc12 [Clioquinol] | 336 |
| CCCCCCCCNC(C)C(O)c1ccc(SC(C)C)cc1 (centres unmarked) [Suloctidil] | 370 |
| Cc1ccc(-c2ncc(Cl)cc2-c2ccc(S(C)(=O)=O)cc2)cn1 [Etoricoxib] | 376 |
| OC(CCN1CCCC1)(c1ccccc1)C1CCCCC1 (centres unmarked) [Procyclidine hydrochloride] | 347 |
| CCn1cc(C(=O)O)c(=O)c2cc(F)c(N3CCNCC3)cc21 [Norfloxacin] | 340 |
| CC(NCCC(c1ccccc1)c1ccccc1)c1ccccc1 (centres unmarked) [Fendiline hydrochloride] | 335 |
| CN1CCN(CCCN2c3ccccc3Sc3ccc(Cl)cc32)CC1 [Prochlorperazine dimaleate] | 357 |
| N=C(N)NCC1COC2(CCCCC2)O1.N=C(N)NCC1COC2(CCCCC2)O1.O=S(=O)(O)O (centres unmarked) [Guanadrel sulfate] | 373 |
| Cc1cc(C(C)(C)CC(C)(C)C)ccc1OCCOCC[N+](C)(C)Cc1ccccc1.[Cl-] [Methyl benzethonium chloride] | 348 |
| NS(=O)(=O)c1cc(C(=O)O)c(NCc2ccco2)cc1Cl [Furosemide] | 360 |

Same assay, conditions: p-tau aggregation modulator screen of the compound library, ThS fluorescence net change

| Compound | ThS net change |
| --- | --- |
| CCc1c(C)[nH]c2c1C(=O)C(CN1CCOCC1)CC2 (centres unmarked) [Molindone hydrochloride] | 458 |
| Cc1cn([C@H]2C=C[C@@H](CO)O2)c(=O)[nH]c1=O [Stavudine] | 428 |
| CC(=O)O[C@H]1C[C@@]2(C)[C@@H](C[C@@H](O)[C@H]3[C@@]4(C)CC[C@@H](O)[C@@H](C)[C@@H]4CC[C@@]32C)/C1=C(\CCC=C(C)C)C(=O)O [Fusidic acid sodium salt] | 438 |
| CN1C(=O)CC(c2ccccc2)C1=O (centres unmarked) [Phensuximide] | 453 |
| Cl.NCC(O)c1ccc(O)cc1 (racemic) [(+,-)-Octopamine hydrochloride] | 413 |
| CCOc1ccc(Cc2nccc3cc(OCC)c(OCC)cc23)cc1OCC [Ethaverine hydrochloride] | 439 |
| N=C(N)NC(=O)Cc1c(Cl)cccc1Cl [Guanfacine hydrochloride] | 417 |
| COc1ccc(C[C@@H]2c3cc(OC)c(OC)cc3CC[N@+]2(C)CCC(=O)OCCCCCOC(=O)CC[N@@+]2(C)CCc3cc(OC)c(OC)cc3[C@H]2Cc2ccc(OC)c(OC)c2)cc1OC [Cisatracurium besylate] | 458 |
| N#Cc1ccc(C(c2ccc(C#N)cc2)n2cncn2)cc1 [Letrozole] | 453 |
| CNCC(O)c1ccc(O)c(O)c1 (centres unmarked) [Racepinephrine HCl] | 453 |
| Tyloxapol | 577 |
| Cc1cccc(Nc2ccncc2S(=O)(=O)NC(=O)NC(C)C)c1 [Torsemide] | 455 |
| CC(C(=O)O)c1ccc2c(c1)[nH]c1ccc(Cl)cc12 (centres unmarked) [Carprofen] | 478 |
| C[N+]1(C)[C@@H]2CC[C@H]1C[C@@H](OC(=O)C(CO)c1ccccc1)C2 (some centres unmarked) [Methylatropine nitrate] | 413 |
